Measured values: paper PMC8856595 (2021)
One block for each compound: values may come before it.

Assays:
Assay in all cases: ITC
[1] = system: aptananozyme XI: 3'-amino-TBA (7) on Cu2+ C-dots (DNA, aptamer) TGTGGTGTGTGAGTGCGGTGCCC; details: 100 mM NaCl, 5 mM MgCl2, 50 mM phosphate, pH 7.2, Figure S16 legend: 50 mM NaCl, 10 mM MgCl2
[2] = system: aptananozyme XIV: 5'-amino-(TGTA)3-TBA (10) on Cu2+ C-dots (DNA, aptamer) TGTATGTATGTATGTGGTGTGTGAGTGCGGTGCCC; details: 100 mM NaCl, 5 mM MgCl2, 50 mM phosphate, pH 7.2, Figure S16 legend: 50 mM NaCl, 10 mM MgCl2
[3] = system: aptananozyme XIII: 5'-amino-(TGTA)2-TBA (9) on Cu2+ C-dots (DNA, aptamer) TGTATGTATGTGGTGTGTGAGTGCGGTGCCC; details: 100 mM NaCl, 5 mM MgCl2, 50 mM phosphate, pH 7.2, Figure S16 legend: 50 mM NaCl, 10 mM MgCl2
[4] = system: aptananozyme X: 5'-amino-TBA (6) on Cu2+ C-dots (DNA, aptamer) TGTGGTGTGTGAGTGCGGTGCCC; details: 100 mM NaCl, 5 mM MgCl2, 50 mM phosphate, pH 7.2, Figure S16 legend: 50 mM NaCl, 10 mM MgCl2
[5] = system: aptananozyme XII: 5'-amino-(TGTA)-TBA (8) on Cu2+ C-dots (DNA, aptamer) TGTATGTGGTGTGTGAGTGCGGTGCCC; details: 100 mM NaCl, 5 mM MgCl2, 50 mM phosphate, pH 7.2, Figure S16 legend: 50 mM NaCl, 10 mM MgCl2
[6] = system: aptananozyme III: 5'-amino-(TGTA)-DBA (3) on Cu2+ C-dots (DNA, aptamer) TGTACGACGCCAGTTTGAAGGTTCGTTCGCAGGTGTGGAGTGACGTCG; details: 100 mM NaCl, 5 mM MgCl2, 5 mM MES, pH 5.5
[7] = system: aptananozyme V: 5'-amino-(TGTA)3-DBA (5) on Cu2+ C-dots (DNA, aptamer) TGTATGTATGTACGACGCCAGTTTGAAGGTTCGTTCGCAGGTGTGGAGTGACGTCG; details: 100 mM NaCl, 5 mM MgCl2, 5 mM MES, pH 5.5
[8] = system: aptananozyme II: 3'-amino-DBA (2) on Cu2+ C-dots (DNA, aptamer) CGACGCCAGTTTGAAGGTTCGTTCGCAGGTGTGGAGTGACGTCG; details: 100 mM NaCl, 5 mM MgCl2, 5 mM MES, pH 5.5
[9] = system: aptananozyme IV: 5'-amino-(TGTA)2-DBA (4) on Cu2+ C-dots (DNA, aptamer) TGTATGTACGACGCCAGTTTGAAGGTTCGTTCGCAGGTGTGGAGTGACGTCG; details: 100 mM NaCl, 5 mM MgCl2, 5 mM MES, pH 5.5
[10] = system: aptananozyme I: 5'-amino-DBA (1) on Cu2+ C-dots (DNA, aptamer) CGACGCCAGTTTGAAGGTTCGTTCGCAGGTGTGGAGTGACGTCG; details: 100 mM NaCl, 5 mM MgCl2, 5 mM MES, pH 5.5; for Kd: printed as 'the aptamer', methods: aptananozyme

Kd [1]: 1.24 ± 0.05 µM | Kd [2]: 1.4 ± 0.1 µM | binding [3]: yes | Kd [4]: 0.83 ± 0.01 µM | binding [5]: yes
Compound: NC(=O)[C@@H](N)Cc1ccc(O)cc1

binding [6]: yes | Kd [7]: 3.9 ± 0.2 µM | binding [8]: yes | binding [9]: yes | binding ([10]; aptamer on Cu2+ C-dots): yes
Compound: NCCc1ccc(O)c(O)c1

Kd [10]: 1.7 ± 0.4 µM
Compound: N[C@@H](Cc1ccc(O)c(O)c1)C(=O)O

Kd [10]: 6.6 ± 1 µM
Compound: N[C@H](Cc1ccc(O)c(O)c1)C(=O)O
